Measured values from patent publication US20250108139A1, “PEPTIDE UREA DERIVATIVE, PHARMACEUTICAL COMPOSITION CONTAINING PEPTIDE UREA DERIVATIVE, AND APPLICATION OF PEPTIDE UREA DERIVATIVE” (BIVISION PHARMACEUTICALS, INC, priority 2022, published 2025).
pKd: −log10 of the molar value. Blank lines part the entries; values can stand above or below the compound they belong to.

Key:
PSMA protein = PSMA protein (Homo sapiens (Human), UniProt Q04609); test: Affinity of DB compounds to PSMA protein using Biacore (Effect Example 3); details: Biacore 8K, 15° C., 1:1 binding model; pKD=−Log KD
Protocol: The affinity of DB compounds to PSMA protein was tested using the Biacore 8K (Cytiva) instrument to detect ligand binding to PSMA protein (Sino Biological). PSMA protein was captured on an SA chip. Before fixing the ligand (flow paths 1 and 2, flow rate of 10 μL/min), PSMA protein (10 μg/mL, flow rate of 5 μL/min, injection time of 600 s) was fixed on flow path 2 using a flow buffer. The sensor surface was adjusted by continuously injecting 1 M NaCl three times in 50 mM NaOH. After each ligand injection, additional cleaning was performed using isopropanol in 1 M NaCl and 50 mM NaOH (flow paths 1 and 2, flow rate of 10 μL/min, injection time of 60 s).
All compounds were dissolved in 100% DMSO and diluted to 10 mM, then further diluted to the appropriate highest concentration in the analysis buffer (PBS, PH 7.4, 1 mM TCEP ([…]), 0.05% P20, 2% DMSO). The analysis was conducted under the following conditions: 15° C. analysis temperature; analysis steps=all set to LMW kinetics; cycle type=single cycle (90 s contact time, 1800 s dissociation time, 30 μL/min flow rate, flow paths 1 and 2); detection in flow=path 2-1. Data evaluation was performed using Biacore Insight Evaluation Software, fitting the data to a 1:1 binding model.
Biacore results are shown in Table 5: pKD=−Log KD, wherein KD is the binding affinity of the compound to PSMA protein measured by Biacore. It is expressed by Kd (M)=Kd (1/s)/Ka (1/Ms). A indicates pKD>8; B indicates 7<pKD<8; C indicates 6<pKD<7; D indicates pKD<6.

[1] = test system: PSMA-positive 22rv1 tumor-bearing mouse; test: 177Lu labeling and animal biodistribution experiment, gamma counter; format: in vivo; details: 177Lu-labeled compound, 24 h after tail vein injection, n = 2
Protocol: Distribution in PSMA-positive tumor-bearing mouse tissues: Tumor-bearing animals (purchased from Shanghai Alamo Pharmaceutical Technology Co., Ltd.) were subcutaneously inoculated with 3×10^6 22rv1 cells (in 50% Matrigel, Corning) into the right shoulder region of 6-9 week old (Balb/c Nude) mouse. Once the tumors had grown to an appropriate size, ^177Lu-radiolabeled DB compounds were injected into the mouse via the tail vein (approximately 1.85 MBq-3.7 MBq/mouse, specific activity: 22423.82 Kbq/μg). After administration, the animals were euthanized using carbon dioxide inhalation at 24 hours. The blood and organs (blood, liver, kidney, muscle, tumor) were collected.
Blood was collected through the abdominal aorta and 100 μL was immediately quantified into designated centrifuge tubes (weighed). After collection, the organs were washed twice with deionized water, dried, placed in pre-weighed tubes, and weighed again to calculate the sample weight. Samples were measured on the day of collection. All blood and tissue samples were measured for radioactivity using a gamma counter. The results are shown in FIGS. 3, 4, 5, 6, 7, and Table 6.

[2] = test system: human prostate cancer cell line 22RV1 tumor model; test: Micro-SPECT/CT scanning imaging study in mouse transplanted with 22RV1; format: in vivo; details: for Uptake in Bladder / Uptake in Kidney / Uptake in Liver / Uptake in Muscle / Uptake in Tumor (22Rv1): i.v., Micro-SPECT/CT
Protocol: Human prostate cancer cell line 22RV1 cells were subcutaneously injected into the axilla of nude mouse to establish a prostate cancer tumor model. Approximately 3.7 MBq (100 μCi/200 μL) of the ^177Lu-labeled compound [^177Lu] DB-01 was administered via intravenous injection. SPECT/CT images were acquired using the U-SPECT+/CT (MI Labs) at 3rd hour, 5th hour, 24th hour, 72nd hour, 120th hour and 168th hour post-injection, and the resulting SPECT/CT images were quantitatively analyzed.
Table 4 presents the uptake in various organs of mouse at the 3rd hour, 5th hour, 24th hour, 72nd hour, 120th hour, and 168th hour post-injection of [^177Lu] DB-01. The results are expressed as the quantitative percentage of the injected dose (% ID)/g, based on Micro-SPECT/CT quantitative analysis.

Sequence of PSMA protein (Q04609 whole entry): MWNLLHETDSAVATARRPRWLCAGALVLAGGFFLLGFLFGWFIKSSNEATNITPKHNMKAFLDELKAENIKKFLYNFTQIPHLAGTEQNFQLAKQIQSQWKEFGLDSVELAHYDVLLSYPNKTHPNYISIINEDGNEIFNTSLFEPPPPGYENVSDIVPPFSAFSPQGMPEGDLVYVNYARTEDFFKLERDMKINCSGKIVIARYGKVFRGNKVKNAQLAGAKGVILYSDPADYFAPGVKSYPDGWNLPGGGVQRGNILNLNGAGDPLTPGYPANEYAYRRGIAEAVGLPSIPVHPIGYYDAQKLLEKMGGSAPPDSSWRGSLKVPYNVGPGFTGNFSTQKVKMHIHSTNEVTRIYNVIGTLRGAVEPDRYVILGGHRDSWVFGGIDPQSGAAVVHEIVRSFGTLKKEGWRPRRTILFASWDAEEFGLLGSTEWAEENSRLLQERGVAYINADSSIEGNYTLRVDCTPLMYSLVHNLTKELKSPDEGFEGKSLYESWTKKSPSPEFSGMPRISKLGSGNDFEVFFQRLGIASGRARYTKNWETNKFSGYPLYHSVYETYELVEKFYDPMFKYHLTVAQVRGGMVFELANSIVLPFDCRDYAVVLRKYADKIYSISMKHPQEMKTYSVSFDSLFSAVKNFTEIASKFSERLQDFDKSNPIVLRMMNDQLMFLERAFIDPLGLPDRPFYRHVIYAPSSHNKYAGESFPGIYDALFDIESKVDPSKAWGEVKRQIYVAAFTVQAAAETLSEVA

Structure (SMILES): O=C(O)CC[C@H](NC(=O)N[C@@H](CCCCNC(=O)[C@H](Cc1ccc2ccccc2c1)NC(=O)[C@H]1CC[C@H](CNC(=O)CNC(=O)c2cc(NC(=O)CN3CCN(CC(=O)O)CCN(CC(=O)O)CCN(CC(=O)O)CC3)cc(C(=O)NCC(=O)NC[C@H]3CC[C@H](C(=O)N[C@@H](Cc4ccc5ccccc5c4)C(=O)NCCCC[C@H](NC(=O)N[C@@H](CCC(=O)O)C(=O)O)C(=O)O)CC3)c2)CC1)C(=O)O)C(=O)O [DB-02]
pKd (PSMA protein): > 8.00

Structure (SMILES): O=C(O)CC[C@H](NC(=O)N[C@@H](CCCCNC(=O)[C@H](Cc1ccc2ccccc2c1)NC(=O)c1ccc(C2CCN(C(=O)CCC(=O)NCC(=O)N3CN(C(=O)CNC(=O)CCC(=O)N4CCC(c5ccc(C(=O)N[C@@H](Cc6ccc7ccccc7c6)C(=O)NCCCC[C@H](NC(=O)N[C@@H](CCC(=O)O)C(=O)O)C(=O)O)cc5)CC4)CN(C(=O)CNC(=O)CN4CCN(CC(=O)O)CCN(CC(=O)O)CCN(CC(=O)O)CC4)C3)CC2)cc1)C(=O)O)C(=O)O [DB-12]
pKd (PSMA protein): > 8.00 | Blood uptake [1]: 0.145 % ID/g | Kidney uptake [1]: 88.175 % ID/g | Liver uptake [1]: 1.415 % ID/g | Muscle uptake [1]: 0.135 % ID/g

Structure (SMILES): O=C(O)CC[C@H](NC(=O)N[C@@H](CCCCNC(=O)[C@H](Cc1ccc2ccccc2c1)NC(=O)c1ccc2c(c1)CCN(C(=O)CCC(=O)NCC(=O)N1CN(C(=O)CNC(=O)CCC(=O)N3CCc4cc(C(=O)N[C@@H](Cc5ccc6ccccc6c5)C(=O)NCCCC[C@H](NC(=O)N[C@@H](CCC(=O)O)C(=O)O)C(=O)O)ccc4C3)CN(C(=O)CNC(=O)CN3CCN(CC(=O)O)CCN(CC(=O)O)CCN(CC(=O)O)CC3)C1)C2)C(=O)O)C(=O)O [DB-14]
pKd (PSMA protein): > 8.00 | Blood uptake [1]: 0.06 % ID/g | Kidney uptake [1]: 31.72 % ID/g | Liver uptake [1]: 0.37 % ID/g | Muscle uptake [1]: 0.1 % ID/g | Tumor uptake [1]: 43.175 % ID/g

Structure (SMILES): O=C(O)CC[C@H](NC(=O)NC(CCCCNC(=O)[C@H](Cc1ccc2ccccc2c1)NC(=O)c1ccc(C2CCN(C(=O)CCC(=O)NCCCC[C@H](NC(=O)CCC(=O)N3CCC(c4ccc(C(=O)N[C@@H](Cc5ccc6ccccc6c5)C(=O)NCCCC[C@H](NC(=O)N[C@@H](CCC(=O)O)C(=O)O)C(=O)O)cc4)CC3)C(=O)NCCNC(=O)CN3CCN(CC(=O)O)CCN(CC(=O)O)CCN(CC(=O)O)CC3)CC2)cc1)C(=O)O)C(=O)O (stereo partly shown) [DB-20]
pKd (PSMA protein): > 8.00 | Blood uptake [1]: 0.160 % ID/g | Kidney uptake [1]: 74.455 % ID/g | Liver uptake [1]: 1.020 % ID/g | Muscle uptake [1]: 0.175 % ID/g | Tumor uptake [1]: 41.73 % ID/g

Structure (SMILES): O=C(O)CC[C@H](NC(=O)NC(CCCCNC(=O)[C@H](Cc1ccc2ccccc2c1)NC(=O)c1ccc(C2CCN(C(=O)CNC(=O)c3cc(NC(=O)COCCOCCNC(=O)CN4CCN(CC(=O)O)CCN(CC(=O)O)CCN(CC(=O)O)CC4)cc(C(=O)NCC(=O)N4CCC(c5ccc(C(=O)N[C@@H](Cc6ccc7ccccc7c6)C(=O)NCCCC[C@H](NC(=O)N[C@@H](CCC(=O)O)C(=O)O)C(=O)O)cc5)CC4)c3)CC2)cc1)C(=O)O)C(=O)O (stereo partly shown) [DB-21]
pKd (PSMA protein): > 8.00 | Blood uptake [1]: 1.54 % ID/g | Kidney uptake [1]: 150.54 % ID/g | Liver uptake [1]: 3.645 % ID/g | Muscle uptake [1]: 0.465 % ID/g | Tumor uptake [1]: 77.54 % ID/g

Structure (SMILES): O=C(O)CC[C@H](NC(=O)N[C@@H](CCCCNC(=O)[C@H](Cc1ccc2ccccc2c1)NC(=O)C1CCC(CNC(=O)c2cc(NC(=O)C[N+]34CC[N+]56CC[N+]78CC[N+]9(CC3)CC(=O)[O][Lu-4]4597([O]C(=O)C6)[O]C(=O)C8)cc(C(=O)NC[C@H]3CC[C@H](C(=O)N[C@@H](Cc4ccc5ccccc5c4)C(=O)NCCCC[C@H](NC(=O)N[C@@H](CCC(=O)O)C(=O)O)C(=O)O)CC3)c2)CC1)C(=O)O)C(=O)O (stereo partly shown) [[^177Lu] DB-01]
Uptake in Bladder ([2]; 3 hr post-injection): 65.50 ± 36.65 % ID/g | Uptake in Kidney ([2]; 3 hr post-injection): 43.00 ± 7.38 % ID/g | Uptake in Liver ([2]; 3 hr post-injection): 2.75 ± 0.90 % ID/g | Uptake in Muscle ([2]; 3 hr post-injection): 1.97 ± 0.71 % ID/g | Uptake in Tumor (22Rv1) ([2]; 3 hr post-injection): 21.25 ± 4.38 % ID/g | Uptake in Bladder ([2]; 5 hr post-injection): 140.36 ± 10.51 % ID/g | Uptake in Kidney ([2]; 5 hr post-injection): 19.29 ± 2.77 % ID/g | Uptake in Liver ([2]; 5 hr post-injection): 1.56 ± 0.15 % ID/g | Uptake in Muscle ([2]; 5 hr post-injection): 1.10 ± 0.56 % ID/g | Uptake in Tumor (22Rv1) ([2]; 5 hr post-injection): 21.28 ± 0.42 % ID/g | Uptake in Bladder ([2]; 24 hr post-injection): 0.61 ± 0.00 % ID/g | Uptake in Kidney ([2]; 24 hr post-injection): 1.32 ± 0.63 % ID/g | Uptake in Liver ([2]; 24 hr post-injection): 0.91 ± 0.45 % ID/g | Uptake in Muscle ([2]; 24 hr post-injection): 0.51 ± 0.17 % ID/g | Uptake in Tumor (22Rv1) ([2]; 24 hr post-injection): 15.51 ± 2.65 % ID/g | Uptake in Bladder ([2]; 72 hr post-injection): 1.03 ± 0.62 % ID/g | Uptake in Kidney ([2]; 72 hr post-injection): 1.38 ± 0.29 % ID/g | Uptake in Liver ([2]; 72 hr post-injection): 0.90 ± 0.42 % ID/g | Uptake in Muscle ([2]; 72 hr post-injection): 0.81 ± 0.23 % ID/g | Uptake in Tumor (22Rv1) ([2]; 72 hr post-injection): 12.41 ± 0.95 % ID/g | Uptake in Bladder ([2]; 120 hr post-injection): 0.92 ± 0.06 % ID/g | Uptake in Kidney ([2]; 120 hr post-injection): 0.77 ± 0.62 % ID/g | Uptake in Liver ([2]; 120 hr post-injection): 0.99 ± 0.22 % ID/g | Uptake in Muscle ([2]; 120 hr post-injection): 0.43 ± 0.17 % ID/g | Uptake in Tumor (22Rv1) ([2]; 120 hr post-injection): 8.90 ± 0.48 % ID/g | Uptake in Bladder ([2]; 168 hr post-injection): 1.01 ± 0.38 % ID/g | Uptake in Kidney ([2]; 168 hr post-injection): 1.53 ± 0.46 % ID/g | Uptake in Liver ([2]; 168 hr post-injection): 1.04 ± 0.26 % ID/g | Uptake in Muscle ([2]; 168 hr post-injection): 0.65 ± 0.34 % ID/g | Uptake in Tumor (22Rv1) ([2]; 168 hr post-injection): 7.85±1.16 % ID/g | uptake in tumor ([2]; at 180 minutes, according to calculations): 13.55±3.85 % ID/g | excretion ([2]; early stages post-injection): rapidly excreted through the kidneys and bladder | time at which concentration of the radiopharmaceutical in the tumor reaches its peak ([2]; post-administration): 5 h

Results, then the compound that gave them:

pKd (PSMA protein): > 8.00 | Blood uptake [1]: 0.035 % ID/g | Kidney uptake [1]: 8.76 % ID/g | Liver uptake [1]: 0.095 % ID/g | Muscle uptake [1]: 0.04 % ID/g | Tumor uptake [1]: 19.46 % ID/g
Structure (SMILES): O=C(O)CC[C@H](NC(=O)NC(CCCCNC(=O)[C@H](Cc1ccc2ccccc2c1)NC(=O)[C@H]1CC[C@H](NC(=O)COCCOCCNC(=O)c2cc(NC(=O)CCCCCCCNC(=O)CN3CCN(CC(=O)O)CCN(CC(=O)O)CCN(CC(=O)O)CC3)cc(C(=O)NCCOCCOCC(=O)N[C@H]3CC[C@H](C(=O)N[C@@H](Cc4ccc5ccccc5c4)C(=O)NCCCC[C@H](NC(=O)N[C@@H](CCC(=O)O)C(=O)O)C(=O)O)CC3)c2)CC1)C(=O)O)C(=O)O (stereo partly shown) [DB-15]

pKd (PSMA protein): > 8.00 | Blood uptake [1]: 0.03 % ID/g | Kidney uptake [1]: 5.135 % ID/g | Liver uptake [1]: 0.185 % ID/g | Muscle uptake [1]: 0.045 % ID/g | Tumor uptake [1]: 12.015 % ID/g
Structure (SMILES): O=C(O)CC[C@H](NC(=O)NC(CCCCNC(=O)[C@H](Cc1ccc2ccccc2c1)NC(=O)[C@H]1CC[C@H](NC(=O)CCC(=O)NCCCC[C@H](NC(=O)CCC(=O)N[C@H]2CC[C@H](C(=O)N[C@@H](Cc3ccc4ccccc4c3)C(=O)NCCCC[C@H](NC(=O)N[C@@H](CCC(=O)O)C(=O)O)C(=O)O)CC2)C(=O)NCCNC(=O)CN2CCN(CC(=O)O)CCN(CC(=O)O)CCN(CC(=O)O)CC2)CC1)C(=O)O)C(=O)O (stereo partly shown) [DB-16]

pKd (PSMA protein): > 8.00
Structure (SMILES): O=C(O)CC[C@H](NC(=O)NC(CCCCNC(=O)[C@H](Cc1ccc2ccccc2c1)NC(=O)[C@H]1CC[C@H](NC(=O)c2cc(NC(=O)CNC(=O)CN3CCN(CC(=O)O)CCN(CC(=O)O)CCN(CC(=O)O)CC3)cc(C(=O)N[C@H]3CC[C@H](C(=O)N[C@@H](Cc4ccc5ccccc5c4)C(=O)NCCCC[C@H](NC(=O)N[C@@H](CCC(=O)O)C(=O)O)C(=O)O)CC3)c2)CC1)C(=O)O)C(=O)O (stereo partly shown) [DB-17]
